Measurements reported in PubChem BioAssay AID1259407 (Chemical Carcinogenesis Research Information System (CCRIS), 2018).
The source made the active and inactive calls. How the calls were made is not given here.

Test system: CCRIS mutagenicity, Ames/micronucleus/aberration tests
Assay: CCRIS mutagenicity studies

Compound: ClC(Cl)=C(Cl)Cl
- mutagenic call (End Point: IN VITRO CHROMOSOMAL ABERRATIONS, Test System: CHINESE HAMSTER OVARY CELLS, Metabolic Activation: NONE): inactive; negative
- mutagenic call (End Point: IN VITRO CHROMOSOMAL ABERRATIONS, Test System: CHINESE HAMSTER OVARY CELLS, Metabolic Activation: RAT, LIVER, S-9, AROCLOR 1254): inactive; negative
- mutagenic call (End Point: IN VITRO CHROMOSOMAL ABERRATIONS, Test System: CHL/IU CELLS, Metabolic Activation: NONE): inactive; negative
- mutagenic call (End Point: IN VITRO CHROMOSOMAL ABERRATIONS, Test System: CHO CELLS, Metabolic Activation: NONE): inactive; negative
- mutagenic call (End Point: IN VITRO CHROMOSOMAL ABERRATIONS, Test System: CHO CELLS, Metabolic Activation: RAT, LIVER, S-9, AROCLOR 1254): inactive; negative
- mutagenic call (End Point: IN VITRO MICRONUCLEUS, Test System: CHL/IU CELLS, Metabolic Activation: NONE): inactive; negative
- mutagenic call (Test System: AMES SALMONELLA TYPHIMURIUM, Strain/Indicator: TA98, Metabolic Activation: HAMSTER, LIVER, S-9, AROCLOR 1254, Method: PREINCUBATION): inactive; negative
- mutagenic call (Test System: AMES SALMONELLA TYPHIMURIUM, Strain/Indicator: TA98, Metabolic Activation: NONE, Method: PREINCUBATION): inactive; negative
- mutagenic call (Test System: AMES SALMONELLA TYPHIMURIUM, Strain/Indicator: TA98, Metabolic Activation: NONE, Method: STANDARD PLATE): inactive; negative
- mutagenic call (Test System: AMES SALMONELLA TYPHIMURIUM, Strain/Indicator: TA98, Metabolic Activation: RAT, LIVER, S-9, AROCLOR 1254, Method: PREINCUBATION): inactive; negative
- mutagenic call (Test System: AMES SALMONELLA TYPHIMURIUM, Strain/Indicator: TA98, Metabolic Activation: RAT, LIVER, S-9, AROCLOR, Method: STANDARD PLATE): inactive; negative
- mutagenic call (Test System: AMES SALMONELLA TYPHIMURIUM, Strain/Indicator: TA100, Metabolic Activation: HAMSTER, LIVER, S-9, AROCLOR 1254, Method: PREINCUBATION): inactive; negative
- mutagenic call (Test System: AMES SALMONELLA TYPHIMURIUM, Strain/Indicator: TA100, Metabolic Activation: HAMSTER, LIVER, S-9, SODIUM PHENOBARBITAL, Method: STANDARD PLATE (SEALED PLATE)): inactive; negative
- mutagenic call (Test System: AMES SALMONELLA TYPHIMURIUM, Strain/Indicator: TA100, Metabolic Activation: MOUSE, LIVER, S-9, SODIUM PHENOBARBITAL, Method: STANDARD PLATE (SEALED PLATE)): inactive; negative
- mutagenic call (Test System: AMES SALMONELLA TYPHIMURIUM, Strain/Indicator: TA100, Metabolic Activation: NONE, Method: BAG VAPORIZATION): inactive; negative
- mutagenic call (Test System: AMES SALMONELLA TYPHIMURIUM, Strain/Indicator: TA100, Metabolic Activation: NONE, Method: PREINCUBATION): inactive; negative
- mutagenic call (Test System: AMES SALMONELLA TYPHIMURIUM, Strain/Indicator: TA100, Metabolic Activation: NONE, Method: SPOT): active; positive
- mutagenic call (Test System: AMES SALMONELLA TYPHIMURIUM, Strain/Indicator: TA100, Metabolic Activation: NONE, Method: STANDARD PLATE): inactive; negative
- mutagenic call (Test System: AMES SALMONELLA TYPHIMURIUM, Strain/Indicator: TA100, Metabolic Activation: NONE, Method: STANDARD PLATE (SEALED PLATE)): inactive; negative
- mutagenic call (Test System: AMES SALMONELLA TYPHIMURIUM, Strain/Indicator: TA100, Metabolic Activation: RAT, KIDNEY, MICROSOMES AND RAT, LIVER, GLUTATHIONE AND GLUTATHIONE TRANSFERASE, Method: PREINCUBATION): active; positive
- mutagenic call (Test System: AMES SALMONELLA TYPHIMURIUM, Strain/Indicator: TA100, Metabolic Activation: RAT, LIVER, S-9, AROCLOR 1254, Method: BAG VAPORIZATION): inactive; negative
- mutagenic call (Test System: AMES SALMONELLA TYPHIMURIUM, Strain/Indicator: TA100, Metabolic Activation: RAT, LIVER, S-9, AROCLOR 1254, Method: PREINCUBATION): inactive; negative
- mutagenic call (Test System: AMES SALMONELLA TYPHIMURIUM, Strain/Indicator: TA100, Metabolic Activation: RAT, LIVER, S-9, AROCLOR, Method: STANDARD PLATE): inactive; negative
- mutagenic call (Test System: AMES SALMONELLA TYPHIMURIUM, Strain/Indicator: TA100, Metabolic Activation: RAT, LIVER, S-9, SODIUM PHENOBARBITAL, Method: STANDARD PLATE (SEALED PLATE)): inactive; negative
- mutagenic call (Test System: AMES SALMONELLA TYPHIMURIUM, Strain/Indicator: TA102, Metabolic Activation: MOUSE, LIVER, S-9, SODIUM PHENOBARBITAL, Method: STANDARD PLATE (SEALED PLATE)): inactive; negative
- mutagenic call (Test System: AMES SALMONELLA TYPHIMURIUM, Strain/Indicator: TA102, Metabolic Activation: NONE, Method: STANDARD PLATE (SEALED PLATE)): inactive; negative
- mutagenic call (Test System: AMES SALMONELLA TYPHIMURIUM, Strain/Indicator: TA102, Metabolic Activation: S-9, Method: STANDARD PLATE): inactive; negative
- mutagenic call (Test System: AMES SALMONELLA TYPHIMURIUM, Strain/Indicator: TA104, Metabolic Activation: MOUSE, LIVER, S-9, SODIUM PHENOBARBITAL, Method: STANDARD PLATE (SEALED PLATE)): inactive; negative
- mutagenic call (Test System: AMES SALMONELLA TYPHIMURIUM, Strain/Indicator: TA104, Metabolic Activation: NONE, Method: STANDARD PLATE (SEALED PLATE)): inactive; negative
- mutagenic call (Test System: AMES SALMONELLA TYPHIMURIUM, Strain/Indicator: TA1535, Metabolic Activation: HAMSTER, LIVER, S-9, AROCLOR 1254, Method: PREINCUBATION): inactive; negative
- mutagenic call (Test System: AMES SALMONELLA TYPHIMURIUM, Strain/Indicator: TA1535, Metabolic Activation: MOUSE, LIVER, S-9, SODIUM PHENOBARBITAL, Method: STANDARD PLATE (SEALED PLATE)): inactive; negative
- mutagenic call (Test System: AMES SALMONELLA TYPHIMURIUM, Strain/Indicator: TA1535, Metabolic Activation: NONE, Method: PREINCUBATION): inactive; negative
- mutagenic call (Test System: AMES SALMONELLA TYPHIMURIUM, Strain/Indicator: TA1535, Metabolic Activation: NONE, Method: STANDARD PLATE (SEALED PLATE)): inactive; negative
- mutagenic call (Test System: AMES SALMONELLA TYPHIMURIUM, Strain/Indicator: TA1535, Metabolic Activation: RAT, LIVER, S-9, AROCLOR 1254, Method: PREINCUBATION): inactive; negative
- mutagenic call (Test System: AMES SALMONELLA TYPHIMURIUM, Strain/Indicator: TA1537, Metabolic Activation: HAMSTER, LIVER, S-9, AROCLOR 1254, Method: PREINCUBATION): inactive; negative
- mutagenic call (Test System: AMES SALMONELLA TYPHIMURIUM, Strain/Indicator: TA1537, Metabolic Activation: NONE, Method: PREINCUBATION): inactive; negative
- mutagenic call (Test System: AMES SALMONELLA TYPHIMURIUM, Strain/Indicator: TA1537, Metabolic Activation: RAT, LIVER, S-9, AROCLOR 1254, Method: PREINCUBATION): inactive; negative
- mutagenic call (Test System: AMES SALMONELLA TYPHIMURIUM, Strain/Indicator: TA2638, Metabolic Activation: S-9, Method: STANDARD PLATE): inactive; negative
- mutagenic call (Test System: AMES SALMONELLA TYPHIMURIUM, Strain/Indicator: UTH8413, Metabolic Activation: NONE, Method: STANDARD PLATE): inactive; negative
- mutagenic call (Test System: AMES SALMONELLA TYPHIMURIUM, Strain/Indicator: UTH8413, Metabolic Activation: RAT, LIVER, S-9, AROCLOR, Method: STANDARD PLATE): inactive; negative
- mutagenic call (Test System: AMES SALMONELLA TYPHIMURIUM, Strain/Indicator: UTH8414, Metabolic Activation: NONE, Method: STANDARD PLATE): inactive; negative
- mutagenic call (Test System: AMES SALMONELLA TYPHIMURIUM, Strain/Indicator: UTH8414, Metabolic Activation: RAT, LIVER, S-9, AROCLOR, Method: STANDARD PLATE): inactive; negative
- mutagenic call (Test System: Ames Salmonella typhimurium, Strain/Indicator: TA98, Metabolic Activation: None, Method: Gas exposure method): inactive; negative (two experiments)
- mutagenic call (Test System: Ames Salmonella typhimurium, Strain/Indicator: TA98, Metabolic Activation: Rat, Liver, S9, Sodium phenobarbital and 5,6-benzoflavone (10%), Method: Gas exposure method): inactive; negative (two experiments)
- mutagenic call (Test System: Ames Salmonella typhimurium, Strain/Indicator: TA100, Metabolic Activation: None, Method: Gas exposure method): inactive; negative (two experiments)
- mutagenic call (Test System: Ames Salmonella typhimurium, Strain/Indicator: TA100, Metabolic Activation: Rat, Liver, S9, Sodium phenobarbital and 5,6-benzoflavone (10%), Method: Gas exposure method): inactive; negative (two experiments)
- mutagenic call (Test System: Ames Salmonella typhimurium, Strain/Indicator: TA1535, Metabolic Activation: None, Method: Gas exposure method): active; positive (two experiments)
- mutagenic call (Test System: Ames Salmonella typhimurium, Strain/Indicator: TA1535, Metabolic Activation: Rat, Liver, S9, Sodium phenobarbital and 5,6-benzoflavone (10%), Method: Gas exposure method): active; positive (two experiments)
- mutagenic call (Test System: Ames Salmonella typhimurium, Strain/Indicator: TA1537, Metabolic Activation: None, Method: Gas exposure method): inactive; negative (two experiments)
- mutagenic call (Test System: Ames Salmonella typhimurium, Strain/Indicator: TA1537, Metabolic Activation: Rat, Liver, S9, Sodium phenobarbital and 5,6-benzoflavone (10%), Method: Gas exposure method): inactive; negative (two experiments)
- mutagenic call (Test System: CHO/HGPRT, Strain/Indicator: CHO/GIEMSA, Metabolic Activation: NONE, Method: STANDARD PLATE): inactive; negative
- mutagenic call (Test System: CHO/HGPRT, Strain/Indicator: CHO/GIEMSA, Metabolic Activation: RAT, LIVER, S-9, AROCLOR 1254, Method: STANDARD PLATE): inactive; negative
- mutagenic call (Test System: E. COLI, Strain/Indicator: WP2 (PKM101), Metabolic Activation: S-9, Method: STANDARD PLATE): inactive; negative
- mutagenic call (Test System: E. COLI, Strain/Indicator: WP2 UVRA (PKM101), Metabolic Activation: S-9, Method: STANDARD PLATE): inactive; negative
- mutagenic call (Test System: E. coli, Strain/Indicator: WP2uvrA/pKM101, Metabolic Activation: None, Method: Gas exposure method): inactive; negative (two experiments)
- mutagenic call (Test System: E. coli, Strain/Indicator: WP2uvrA/pKM101, Metabolic Activation: Rat, Liver, S9, Sodium phenobarbital and 5,6-benzoflavone (10%), Method: Gas exposure method): inactive; negative (two experiments)
- mutagenic call (Test System: MOUSE LYMPHOMA, Strain/Indicator: L5178Y (TK+/TK-), Metabolic Activation: NONE, Method: SUSPENSION/PLATE): inactive; negative
- mutagenic call (Test System: MOUSE LYMPHOMA, Strain/Indicator: L5178Y (TK+/TK-), Metabolic Activation: RAT, LIVER, S-9, AROCLOR 1254, Method: SUSPENSION/PLATE): inactive; negative
